Patent publication US20240116951A1, “HETEROCYCLIC COMPOUNDS AND USES THEREOF” (Kumquat Biosciences Inc., priority 2022, published 2024)
pIC50: −log10 of the molar value.

What was measured:
Format in all cases: binding
KRAS G12S = target: T1, KRAS G12S (Homo sapiens, UniProt P01116, G12S); experiment: HTRF assay of K-Ras G12S interaction with SOS1 (PPI-HTRF); details: 5 nM KRAS G12S, read-out: PPI-HTRF-5 nM KRAS G12S
T1 construct: made in house; host or cells: E. coli, e.g. BL21 (DE3)
How it was run: (§1)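 Read-out: HTRF ratio 665/620 nm (ex 337 nm) after ~10 min or longer. Donor anti-GST-Eu(K) on GST-K-Ras and acceptor anti-6His-XL665 on His-hSOS1, in HEPES pH 7.4 buffer with DTT, BSA and Igepal. Duplicate dilution series from 10 μM down to 0.01 μM gave IC50 values.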

KRAS WT = target: T2, KRAS WT (Homo sapiens, UniProt P01116); experiment: HTRF assay of wildtype K-Ras interaction with SOS1 (PPI-HTRF); details: HTRF, 5 nM KRAS WT; read-out: PPI-HTRF-5 nM KRAS WT
T2 construct: made in house; host or cells: E. coli, e.g. BL21 (DE3)
T2 sequence (P01116 1-188 isoform P01116-2): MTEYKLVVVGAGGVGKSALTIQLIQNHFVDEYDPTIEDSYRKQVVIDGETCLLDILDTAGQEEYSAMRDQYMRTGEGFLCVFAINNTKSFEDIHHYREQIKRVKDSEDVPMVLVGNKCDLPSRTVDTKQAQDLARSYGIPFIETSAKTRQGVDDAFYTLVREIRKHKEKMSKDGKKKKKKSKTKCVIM
How it was run: as §1

KRAS G12D = target: T3, KRAS G12D (Homo sapiens, UniProt P01116, G12D); experiment: HTRF assay of K-Ras G12D interaction with SOS1 (PPI-HTRF); details: HTRF, 5 nM KRAS G12D; read-out: PPI-HTRF-5 nM KRAS G12D
T3 construct: made in house; host or cells: E. coli, e.g. BL21 (DE3)
T3 sequence (P01116 1-188 isoform P01116-2 G12D): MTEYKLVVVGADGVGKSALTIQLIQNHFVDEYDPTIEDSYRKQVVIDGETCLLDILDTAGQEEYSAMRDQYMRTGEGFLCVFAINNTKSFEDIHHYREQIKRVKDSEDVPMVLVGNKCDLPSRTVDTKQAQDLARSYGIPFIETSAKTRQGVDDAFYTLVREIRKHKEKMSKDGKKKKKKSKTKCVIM
How it was run: as §1

Measured: pIC50

T1 sequence (P01116 1-188 isoform P01116-2 G12S): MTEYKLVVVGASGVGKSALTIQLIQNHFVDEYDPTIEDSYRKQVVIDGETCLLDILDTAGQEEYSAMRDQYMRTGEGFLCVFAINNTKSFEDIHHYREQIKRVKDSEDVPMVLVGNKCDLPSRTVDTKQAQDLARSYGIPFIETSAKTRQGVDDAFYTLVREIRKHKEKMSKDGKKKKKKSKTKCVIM

N#Cc1c(N)sc2c(F)ccc(-c3c(Cl)cc4c(N5CC6(CCN6C(=O)n6cncn6)CC5COC(F)F)nc(OC[C@@]56CCCN5C[C@H](F)C6)nc4c3F)c12 (stereo partly drawn) [Compound 326, 2-amino-4-(6-chloro-4-(7-((difluoromethoxy)methyl)-1-(1H-1,2,4-triazole-1-carbonyl)-1,6-diazaspiro[3.4]octan-6-yl)-8-fluoro-2-(((2R,7aS)-2-fluorotetrahydro-1H-pyrrolizin-7a(5H)-yl)methoxy)quinazolin-7-yl)-7-fluorobenzo[b]thiophene-3-carbonitrile]
> 5.30: all assays above

N#Cc1c(N)sc2c(F)ccc(-c3c(Cl)cc4c(N5CC[C@]6(CCN6C(=O)n6cncn6)C5)nc(OC[C@@]56CCCN5C[C@H](F)C6)nc4c3F)c12 [Compound 305, 4-(4-((S)-1-(1H-1,2,4-triazole-1-carbonyl)-1,6-diazaspiro[3.4]octan-6-yl)-6-chloro-8-fluoro-2-(((2R,7aS)-2-fluorotetrahydro-1H-pyrrolizin-7a(5H)-yl)methoxy)quinazolin-7-yl)-2-amino-7-fluorobenzo[b]thiophene-3-carbonitrile]
> 5.30: all assays above

Nc1nc2c(-c3c(Cl)cc4c(N5CCCC6(CC5)CCN6C=O)nc(OC[C@@]56CCCN5C[C@H](F)C6)nc4c3F)ccc(F)c2s1 (stereo partly drawn) [Compound 233, 7-(7-(2-amino-7-fluorobenzo[d]thiazol-4-yl)-6-chloro-8-fluoro-2-(((2R,7aS)-2-fluorotetrahydro-1H-pyrrolizin-7a(5H)-yl)methoxy)quinazolin-4-yl)-1,7-diazaspiro[3.6]decane-1-carbaldehyde]
> 5.30: all assays above

C#Cc1c(F)ccc2cc(O)cc(-c3ncc4c(N5CCC6(CCN6)C5)nc(OC[C@@]56CCCN5C[C@H](F)C6)nc4c3F)c12 (stereo partly drawn) [Compound 268, 5-ethynyl-6-fluoro-4-(8-fluoro-2-(((2R,7aS)-2-fluorotetrahydro-1H-pyrrolizin-7a(5H)-yl)methoxy)-4-(1,6-diazaspiro[3.4]octan-6-yl)pyrido[4,3-d]pyrimidin-7-yl)naphthalen-2-ol]
> 5.30: all assays above

N#Cc1c(N)sc2c(F)ccc(-c3c(Cl)cc4c(N5CC[C@@]6(CCN6C(=O)n6cncn6)C5)nc(OC[C@@]56CCCN5C[C@H](F)C6)nc4c3F)c12 (single isomer, unassigned) [Compound 234]
> 5.30: all assays above

Nc1nc2c(-c3c(Cl)cc4c(N5CCC6(CCN6C(=O)n6cncn6)C5)nc(OC[C@@]56CCCN5C[C@H](F)C6)nc4c3F)ccc(F)c2s1 (stereo partly drawn) [Compound 264, (6-(7-(2-amino-7-fluorobenzo[d]thiazol-4-yl)-6-chloro-8-fluoro-2-(((2R,7aS)-2-fluorotetrahydro-1H-pyrrolizin-7a(5H)-yl)methoxy)quinazolin-4-yl)-1,6-diazaspiro[3.4]octan-1-yl)(1H-1,2,4-triazol-1-yl)methanone]
> 5.30: all assays above

Nc1nc2c(-c3c(Cl)cc4c(N5CCCC6(CCCN6)C5)nc(OC[C@@]56CCCN5C[C@H](F)C6)nc4c3F)ccc(F)c2s1 (stereo partly drawn) [Compound 219, 4-(6-chloro-8-fluoro-2-(((2R,7aS)-2-fluorotetrahydro-1H-pyrrolizin-7a(5H)-yl)methoxy)-4-(1,7-diazaspiro[4.5]decan-7-yl)quinazolin-7-yl)-7-fluorobenzo[d]thiazol-2-amine]
> 5.30: all assays above

N#Cc1c(N)sc2c(F)ccc(-c3c(Cl)cc4c(N5CCOCC6(CCN6C(=O)n6cncn6)C5)nc(OC[C@@]56CCCN5C[C@H](F)C6)nc4c3F)c12 (stereo partly drawn) [Compound 351, 4-(4-(1-(1H-1,2,4-triazole-1-carbonyl)-6-oxa-1,9-diazaspiro[3.6]decan-9-yl)-6-chloro-8-fluoro-2-(((2R,7aS)-2-fluorotetrahydro-1H-pyrrolizin-7a(5H)-yl)methoxy)quinazolin-7-yl)-2-amino-7-fluorobenzo[b]thiophene-3-carbonitrile]
> 5.30: all assays above

Nc1nc2c(-c3c(Cl)cc4c(N5CCCC6(CCCN6C(=O)n6cncn6)C5)nc(OC[C@@]56CCCN5C[C@H](F)C6)nc4c3F)ccc(F)c2s1 (stereo partly drawn) [Compound 211, (7-(7-(2-amino-7-fluorobenzo[d]thiazol-4-yl)-6-chloro-8-fluoro-2-(((2R,7aS)-2-fluorotetrahydro-1H-pyrrolizin-7a(5H)-yl)methoxy)quinazolin-4-yl)-1,7-diazaspiro[4.5]decan-1-yl)(1H-1,2,4-triazol-1-yl)methanone]
> 5.30: all assays above

Cc1ncn(C(=O)N2CC[C@]23CCN(c2nc(OC[C@@]45CCCN4C[C@H](F)C5)nc4c(F)c(-c5ccc(F)c6sc(N)c(C#N)c56)c(Cl)cc24)C3)n1 [Compound 222, 2-amino-4-(6-chloro-8-fluoro-2-(((2R,7aS)-2-fluorotetrahydro-1H-pyrrolizin-7a(5H)-yl)methoxy)-4-((S)-1-(3-methyl-1H-1,2,4-triazole-1-carbonyl)-1,6-diazaspiro[3.4]octan-6-yl)quinazolin-7-yl)-7-fluorobenzo[b]thiophene-3-carbonitrile]
> 5.30: all assays above

N#Cc1c(N)sc2c(F)ccc(-c3c(Cl)cc4c(N5CCC6(CC5)CCN6C(=O)[C@@H]5N[C@H]5C5CC5)nc(OC[C@@]56CCCN5C[C@H](F)C6)nc4c3F)c12 [Compound 262, 2-amino-4-(6-chloro-4-(1-((2R,3S)-3-cyclopropylaziridine-2-carbonyl)-1,7-diazaspiro[3.5]nonan-7-yl)-8-fluoro-2-(((2R,7aS)-2-fluorotetrahydro-1H-pyrrolizin-7a(5H)-yl)methoxy)quinazolin-7-yl)-7-fluorobenzo[b]thiophene-3-carbonitrile]
> 5.30: all assays above

N#Cc1c(N)sc2c(F)ccc(-c3c(Cl)cc4c(N5CCC6(CCN6C(=O)CCl)C5)nc(OC[C@@]56CCCN5C[C@H](F)C6)nc4c3F)c12 (stereo partly drawn) [Compound 294, 2-amino-4-(6-chloro-4-(1-(2-chloroacetyl)-1,6-diazaspiro[3.4]octan-6-yl)-8-fluoro-2-(((2R,7aS)-2-fluorotetrahydro-1H-pyrrolizin-7a(5H)-yl)methoxy)quinazolin-7-yl)-7-fluorobenzo[b]thiophene-3-carbonitrile]
> 5.30: all assays above

CC(C)c1ncn(C(=O)N2CCC23CCN(c2nc(OC[C@@]45CCCN4C[C@H](F)C5)nc4c(F)c(-c5ccc(F)c6sc(N)c(C#N)c56)c(Cl)cc24)C3)n1 (stereo partly drawn) [Compound 304, 2-amino-4-(6-chloro-8-fluoro-2-(((2R,7aS)-2-fluorotetrahydro-1H-pyrrolizin-7a(5H)-yl)methoxy)-4-(1-(3-isopropyl-1H-1,2,4-triazole-1-carbonyl)-1,6-diazaspiro[3.4]octan-6-yl)quinazolin-7-yl)-7-fluorobenzo[b]thiophene-3-carbonitrile]
> 5.30: all assays above

N#Cc1c(N)sc2c(F)ccc(-c3c(Cl)cc4c(N5CCC6(CCCN6C(=O)[C@@H]6N[C@H]6C6CC6)CC5)nc(OC[C@@]56CCCN5C[C@H](F)C6)nc4c3F)c12 [Compound 295, 2-amino-4-(6-chloro-4-(1-((2R,3S)-3-cyclopropylaziridine-2-carbonyl)-1,8-diazaspiro[4.5]decan-8-yl)-8-fluoro-2-(((2R,7aS)-2-fluorotetrahydro-1H-pyrrolizin-7a(5H)-yl)methoxy)quinazolin-7-yl)-7-fluorobenzo[b]thiophene-3-carbonitrile]
> 5.30: all assays above

CN1CCC[C@H]1COc1nc(N2CCC3(CCN3C(=O)n3cncn3)C2)c2cc(Cl)c(-c3ccc(F)c4sc(N)c(C#N)c34)c(F)c2n1 (stereo partly drawn) [Compound 319, 4-(4-(1-(1H-1,2,4-triazole-1-carbonyl)-1,6-diazaspiro[3.4]octan-6-yl)-6-chloro-8-fluoro-2-(((S)-1-methylpyrrolidin-2-yl)methoxy)quinazolin-7-yl)-2-amino-7-fluorobenzo[b]thiophene-3-carbonitrile]
> 5.30: all assays above

N#Cc1c(N)sc2c(F)ccc(-c3c(Cl)cc4c(N5CCC6(CCCN6C(=O)C6CC6(F)F)C5)nc(OC[C@@]56CCCN5C[C@H](F)C6)nc4c3F)c12 (stereo partly drawn) [Compound 217, 2-amino-4-(6-chloro-4-(1-(2,2-difluorocyclopropane-1-carbonyl)-1,7-diazaspiro[4.4]nonan-7-yl)-8-fluoro-2-(((2R,7aS)-2-fluorotetrahydro-1H-pyrrolizin-7a(5H)-yl)methoxy)quinazolin-7-yl)-7-fluorobenzo[b]thiophene-3-carbonitrile]
> 5.30: all assays above

N#Cc1c(N)sc2c(F)ccc(-c3c(F)c4nc(OC[C@@]56CCCN5C[C@H](F)C6)nc(N5CCC6(CCN6C(=O)n6cncn6)C5)c4c(=O)n3C3CC3)c12 (stereo partly drawn) [Compound 267, 4-(4-(1-(1H-1,2,4-triazole-1-carbonyl)-1,6-diazaspiro[3.4]octan-6-yl)-6-cyclopropyl-8-fluoro-2-(((2R,7aS)-2-fluorotetrahydro-1H-pyrrolizin-7a(5H)-yl)methoxy)-5-oxo-5,6-dihydropyrido[4,3-d]pyrimidin-7-yl)-2-amino-7-fluorobenzo[b]thiophene-3-carbonitrile]
> 5.30: all assays above
